Measurements reported in US9687539B2, “CD4+ T survivin epitopes and uses thereof” (Commissariat a I'Energie Atomique, priority 2005, dated 2017).
Where a chain is given by its changes, count along the chain named. No end group written: not given here.

How the values were obtained:
[1] = molecular target: HLA-DRB4 (DRB4*0101) (Homo sapiens, UniProt P01903+P13762, G164S); assay: Competitive HLA II/peptide binding assay, HLA-DRB4; details: competition with biotinylated tracer; 3 independent experiments
[2] = molecular target: HLA-DR15 (DRB1*1501) (Homo sapiens, UniProt P01903+P01911); assay: Competitive HLA II/peptide binding assay, HLA-DR15; details: competition with biotinylated tracer; 3 independent experiments
[3] = molecular target: HLA-DR3 (DRB1*0301) (Homo sapiens, UniProt P01903+P01911, A100K/A102G/A103R/A169T/F55Y/I96L/K41T/L162R/M171V/P40S/Q125H/Q178H/Q39Y/R42S/S66N/T106N/T262R/W38E/Y61H); assay: biochemical; details: competition with biotinylated tracer; 3 independent experiments; read-out: Binding activity DR3 (IC50)
[4] = molecular target: HLA-DRB3 (DRB3*0101) (Homo sapiens, UniProt P01903+P79483); assay: Competitive HLA II/peptide binding assay, HLA-DRB3; details: competition with biotinylated tracer; 3 independent experiments
[5] = molecular target: HLA-DR13 (DRB1*1301) (Homo sapiens, UniProt P01903+P01911, A100E/A169T/K41T/L162R/M171V/P40S/Q125H/Q178H/Q39Y/Q99D/R42S/S66N/T262R/W38E/Y61H); assay: Competitive HLA II/peptide binding assay, HLA-DR13; details: competition with biotinylated tracer; 3 independent experiments; read-out: Binding activity DR13 (IC50)
[6] = molecular target: HLA-DRB5 (DRB5*0101) (Homo sapiens, UniProt P01903+Q30154); assay: Competitive HLA II/peptide binding assay, HLA-DRB5; details: competition with biotinylated tracer; 3 independent experiments
[7] = tested on: 12 predominant HLA II molecules; assay: Binding to the 12 predominant HLA II molecules, summary; parameters: species or system human; details: for No. of molecules fixed: number of the 12 predominant HLA II molecules bound (IC50 < 1000 nM)
From the text: The assays for binding to HLA II molecules are competitive binding assays with immunoenzymatic visualization, as described in U.S. Pat. No. 6,649,166, Texier et al., J. Immunol., 2000, 164, 3177-3184 and Texier et al., Eur. J. Immunol., 2001, 31, 1837-1846, for the HLA-DR molecules, and in PCT international application WO 03/040299 and Castelli et al., J. Immunol., 2002, 169, 6928-6934, for the HLA-DP4 molecule. The use of these assays for measuring the binding activity of peptides derived from various antigens is illustrated in U.S. Pat. No. 6,649,166 and PCT international applications WO 02/090382, WO 03/040299 and WO 2004/014936.
The sensitivity of each assay is reflected by the IC50 values observed with the nonbiotinylated peptides which correspond to the tracers; the IC50 values of the tracers vary by a factor of less than three.

[8] = molecular target: HLA-DR4 (DRB1*0401) (Homo sapiens, UniProt P01903+P01911, A100K/A169T/F76Y/I96L/K127E/L162R/M171V/N62H/P40V/Q125Y/R42H/S133A/S149N/S66Y/V115G/V209L/W38E); assay: Competitive HLA II/peptide binding assay, HLA-DR4; details: competition with biotinylated tracer; 3 independent experiments
[9] = molecular target: T1, HLA-DP402 (DP*0402) (Homo sapiens, UniProt P04440+P20036, A65V/A84D/A85E/L207M); assay: biochemical; details: competition with biotinylated tracer; 3 independent experiments; read-out: Binding activity DP402 (IC50)
T1 sequence (P04440 30-258 A65V/A84D/A85E): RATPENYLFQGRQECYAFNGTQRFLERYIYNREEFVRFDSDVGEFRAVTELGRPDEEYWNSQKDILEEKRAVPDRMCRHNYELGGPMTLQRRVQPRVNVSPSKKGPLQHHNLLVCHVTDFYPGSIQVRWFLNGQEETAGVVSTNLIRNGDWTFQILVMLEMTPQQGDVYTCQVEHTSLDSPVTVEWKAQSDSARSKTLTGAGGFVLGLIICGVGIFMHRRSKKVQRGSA
T1 sequence (P20036 29-260): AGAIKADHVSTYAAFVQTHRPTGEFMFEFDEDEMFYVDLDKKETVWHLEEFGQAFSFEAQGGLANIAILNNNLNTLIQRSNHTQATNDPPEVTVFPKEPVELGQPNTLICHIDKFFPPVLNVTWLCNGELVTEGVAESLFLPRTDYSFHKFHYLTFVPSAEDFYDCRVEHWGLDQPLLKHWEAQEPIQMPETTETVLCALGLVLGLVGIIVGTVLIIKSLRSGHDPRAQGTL

[10] = molecular target: T2, HLA-DP401 (DP*0401) (Homo sapiens, UniProt P04440+P20036); assay: biochemical; details: competition with biotinylated tracer; 3 independent experiments; read-out: Binding activity DP401 (IC50)
T2 sequence (P04440 30-258): T1 sequence (P04440 30-258 A65V/A84D/A85E) with V36A, D55A, E56A
T2 sequence (P20036 29-260): T1 sequence (P20036 29-260)

[11] = molecular target: HLA-DR11 (DRB1*1101) (Homo sapiens, UniProt P01903+P01911, A100R/A169T/A87E/I96F/K41T/L162R/M171V/P40S/Q125H/Q178H/Q39Y/Q99D/R42S/S66Y/T262R/V115G/W38E); assay: biochemical; details: competition with biotinylated tracer; 3 independent experiments; read-out: Binding activity DR11 (IC50)
[12] = molecular target: HLA-DR7 (DRB1*0701) (Homo sapiens, UniProt P01903+P01911, A100R/A102G/A103Q/D57E/D86V/E43K/F76Y/K127E/L162R/M171V/P40G/Q125H/Q99D/R33Q/R42Y/R54Q/S133A/S66F/T210M/V115G/Y107V/Y59L/Y89S); assay: biochemical; details: competition with biotinylated tracer; 3 independent experiments; read-out: Binding activity DR7 (IC50)
[13] = molecular target: HLA-DR1 (DRB1*0101) (Homo sapiens, UniProt P01903+P01911, A100R/D57E/F55L/F60I/F76Y/I96L/L162R/M171V/P40L/Q125E/R42F/V115G/Y59C); assay: Competitive HLA II/peptide binding assay, HLA-DR1; details: competition with biotinylated tracer; 3 independent experiments

Compound	IC50 [1] [µM]	IC50 [2] [µM]	IC50 [3] [µM]	IC50 [4] [µM]	IC50 [5] [µM]	IC50 [6] [µM]	No. of molecules fixed [7]	IC50 [8] [µM]	IC50 [9] [µM]	IC50 [10] [µM]	Binding specificity for HLA II molecules [7]	IC50 [11] [µM]	IC50 [12] [µM]	IC50 [13] [µM]
LKLDRERAKNKIAKE [102-116, L K L D R E R A K N K I A K E]	> 100	> 100	> 100	> 100	> 100	0.018	1	> 100	> 100	> 100				
KQFEELTLGEFLKLD [91-105, K Q F E E L T L G E F L K L D]	> 100		> 100	30	> 100		5				high affinity for the DR1, DR7, DRB5, DP401 and DP402 molecules	2.35		
MGAPTLPPAWQPFLK [1-15, M G A P T L P P A W Q P F L K]	> 100		> 100	> 100	> 100	8	1	> 100			bind only to the HLA-DR11 molecule		> 100	
AGFIHCPTENEPDLA [peptide 41-55, A G F I H C P T E N E P D L A]			> 100		> 100		1	5	> 100	> 100	binds only to the HLA-DRB4 molecule			
ERMAEAGFIHCPTEN [36-50, E R M A E A G F I H C P T E N]		> 100	> 100	> 100	> 100		0	17					17	
EGWEPDDDPIEEHKK [65-79, E G W E P D D D P I E E H K K]	> 100	> 100	> 100	> 100	> 100	> 100	0	> 100	> 100	> 100		> 100	> 100	> 100
KELEGWEPDDDPIEE [62-76, K E L E G W E P D D D P I E E]	> 100	65	> 100	29	> 100	> 100	0	> 100	> 100	> 100		> 100	> 100	> 100
FCFKELEGWEPDDDP [59-73, F C F K E L E G W E P D D D P]	> 100	8	> 100	> 100	> 100	45	0		> 100	> 100				
GEFLKLDRERAKNKI [99-113, G E F L K L D R E R A K N K I]	22	1.2		> 100		0.022	3		> 100			0.04		
DPIEEHKKHSSGCAF [72-86, D P I E E H K K H S S G C A F]	> 100	> 100	> 100	> 100			0	> 100	> 100	> 100		> 100	> 100	
KEFEETAKKVRRAIE [122-136, K E F E E T A K K V R R A I E]	> 100	1.2		> 100			3	> 100	> 100	> 100			20	
CC(C)C[C@H](NC(=O)[C@H](Cc1ccccc1)NC(=O)[C@@H]1CCCN1C(=O)[C@H](CCC(N)=O)NC(=O)[C@H](Cc1c[nH]c2ccccc12)NC(=O)[C@H](C)NC(=O)[C@@H]1CCCN1C(=O)[C@@H]1CCCN1C(=O)[C@H](CC(C)C)NC(=O)[C@@H](NC(=O)[C@@H]1CCCN1)[C@@H](C)O)C(=O)N[C@@H](CCCCN)C(=O)N[C@@H](CC(=O)O)C(=O)N[C@@H](Cc1c[nH]cn1)C(=O)N[C@@H](CCCNC(=N)N)C(=O)O [4-18, P T L P P A W Q P F L K D H R]	> 100	> 100	> 100	> 100		5.48	1	> 100			bind only to the HLA-DR11 molecule		> 100	45
